# Assay results as given in US10294202B2, “Pyrrolidinones as herbicides” (FMC Corporation, priority 2013, dated 2019).
# Key:
# ragweed = assay: Test C pre-/postemergence herbicide test; type: in vivo, Ambrosia elatior
# Outline: (§1)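 Pre-emergence: seeds sown in loam/sand blend and treated with compound in surfactant-containing solvent. Post-emergence: plants at 2–18 cm (1- to 4-leaf stage) in peat-based medium sprayed with the same formulation. Visual rating versus controls after 13–15 days in greenhouse, scale 0 (no effect) to 100 (complete control).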
# johnsongrass = assay: Test C pre-/postemergence herbicide test; type: in vivo, Sorghum halepense
# Outline: as §1
# soybean = assay: Test C pre-/postemergence herbicide test; type: in vivo, Glycine max
# Outline: as §1
# morningglory = assay: Test C pre-/postemergence herbicide test; type: in vivo, Ipomoea coccinea
# Outline: as §1
# rice = assay: Test B flooded paddy test; type: in vivo, Oryza sativa; details: 500 g ai/ha, Flood; scale of 0 to 100 where 0 is no effect and 100 is complete control
# Outline: (§2)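 2-leaf plants; flood 3 cm over soil; compound into paddy water; depth held. Greenhouse 13–15 d. Visual rating vs controls, 0 (no effect) to 100 (complete control); dash = not tested.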
# lambsquarters = assay: Test C pre-/postemergence herbicide test; type: in vivo, Chenopodium album
# Outline: as §1
# barnyardgrass = assay: Test C pre-/postemergence herbicide test; type: in vivo, Echinochloa crus-galli; details: for Barnyardgrass plant response rating: scale 0 to 100, 0 is no effect and 100 is complete control
# Outline: as §1
# sedge, umbrella = assay: Test B flooded paddy test; type: in vivo, Cyperus difformis; details: 500 g ai/ha, Flood; scale of 0 to 100 where 0 is no effect and 100 is complete control
# Outline: as §2
# oat, wild = assay: Test C pre-/postemergence herbicide test; type: in vivo, Avena fatua; details: Postemergence
# Outline: as §1
# corn = assay: Test A pre-/postemergence herbicide test; type: in vivo, Zea mays; details: Postemergence
# Outline: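 Seeds in loam–sand blend received preemergence directed soil spray; separately, plants 2–10 cm at one- to two-leaf stage received postemergence spray, both with test chemicals in non-phytotoxic solvent with surfactant. After ~10 days in greenhouse, injury rated visually against untreated controls, 0 (no effect) to 100 (complete control).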
# waterhemp = assay: Test C pre-/postemergence herbicide test; type: in vivo, Amaranthus rudis
# Outline: as §1
# [1] = Postemergence, 31 g ai/ha, scale 0 to 100 (0 no effect, 100 complete control)
# [2] = Postemergence, 62 g ai/ha, scale 0 (no effect) to 100 (complete control)
# [3] = Postemergence, 125 g ai/ha, scale 0 to 100 (0 no effect, 100 complete control)
# [4] = Postemergence, 250 g ai/ha, scale 0 to 100 (0 no effect, 100 complete control)
# [5] = Preemergence, 31 g ai/ha, scale 0 to 100, 0 is no effect and 100 is complete control
# [6] = Preemergence, 62 g ai/ha, scale 0 to 100
# [7] = Preemergence, 125 g ai/ha, scale 0 to 100 (0 no effect, 100 complete control)
# [8] = 31 g ai/ha, scale 0 to 100 (0 no effect, 100 complete control)
# [9] = 62 g ai/ha, scale 0 (no effect) to 100 (complete control)
# [10] = 125 g ai/ha, scale 0 to 100 (0 no effect, 100 complete control)
# [11] = 250 g ai/ha, scale 0 to 100 (0 no effect, 100 complete control)
# [12] = Preemergence, 62 g ai/ha, scale 0 to 100 (0 no effect, 100 complete control)
compound,measurement,setting,value
O=C1NCC(c2ccc(F)cc2)C1C(=O)Nc1ccc(F)c(F)c1F (racemic) [Compound 120],"Plant response rating, Ragweed",ragweed; [1],20
same,"Plant response rating, Ragweed",ragweed; [2],45
same,"Plant response rating, Ragweed",ragweed; [3],40
same,"Plant response rating, Ragweed",ragweed; [4],45
same,Ragweed plant response rating,ragweed; [5],0
same,"Plant response rating, Ragweed",ragweed; [6],20
same,"Plant response rating, Ragweed",ragweed; [7],55
same,"Plant response rating (scale of 0 to 100), Ragweed","ragweed; Preemergence, 250 g ai/ha",80
same,"Plant response rating, Johnsongrass",johnsongrass; [1],0
same,"Plant response rating, Johnsongrass",johnsongrass; [2],0
same,"Plant response rating, Johnsongrass",johnsongrass; [3],0
same,"Plant response rating, Johnsongrass",johnsongrass; [4],0
same,Johnsongrass plant response rating,johnsongrass; [5],0
same,"Plant response rating, Johnsongrass",johnsongrass; [6],0
same,"Plant response rating, Johnsongrass",johnsongrass; [7],25
same,"Plant response rating (scale of 0 to 100), Johnsongrass","johnsongrass; Preemergence, 250 g ai/ha",65
same,"Plant response rating, Soybean",soybean; [1],0
same,"Plant response rating, Soybean",soybean; [2],0
same,"Plant response rating, Soybean",soybean; [3],0
same,"Plant response rating, Soybean",soybean; [4],0
same,Soybean plant response rating,soybean; [5],0
same,"Plant response rating, Soybean",soybean; [6],0
same,"Plant response rating, Soybean",soybean; [7],0
same,"Plant response rating (scale of 0 to 100), Soybean","soybean; Preemergence, 250 g ai/ha",0
same,"Plant response rating, Morningglory",morningglory; [1],0
same,"Plant response rating, Morningglory",morningglory; [2],5
same,"Plant response rating, Morningglory",morningglory; [3],0
same,"Plant response rating, Morningglory",morningglory; [4],5
same,Morningglory plant response rating,morningglory; [5],0
same,"Plant response rating, Morningglory",morningglory; [6],0
same,"Plant response rating, Morningglory",morningglory; [7],35
same,"Plant response rating (scale of 0 to 100), Morningglory","morningglory; Preemergence, 250 g ai/ha",40
same,"Plant response rating, Rice",rice,20
same,"Plant response rating, Lambsquarters",lambsquarters; [1],55
same,"Plant response rating, Lambsquarters",lambsquarters; [2],55
same,"Plant response rating, Lambsquarters",lambsquarters; [3],60
same,"Plant response rating, Lambsquarters",lambsquarters; [4],70
same,Lambsquarters plant response rating,lambsquarters; [5],35
same,"Plant response rating, Lambsquarters",lambsquarters; [6],70
same,"Plant response rating, Lambsquarters",lambsquarters; [7],85
same,"Plant response rating (scale of 0 to 100), Lambsquarters","lambsquarters; Preemergence, 250 g ai/ha",90
same,"Plant response rating, Barnyardgrass",barnyardgrass; [1],0
same,"Plant response rating, Barnyardgrass",barnyardgrass; [2],30
same,"Plant response rating, Barnyardgrass",barnyardgrass; [3],40
same,"Plant response rating, Barnyardgrass",barnyardgrass; [4],65
same,Barnyardgrass plant response rating,"barnyardgrass; Preemergence, 31 g ai/ha",85
same,"Plant response rating, Barnyardgrass",barnyardgrass; [6],90
same,"Plant response rating, Barnyardgrass",barnyardgrass; [7],95
same,"Plant response rating (scale of 0 to 100; 0 is no effect, 100 is complete control), Barnyardgrass","barnyardgrass; Preemergence, 250 g ai/ha",98
same,"Plant response rating, Sedge, Umbrella","sedge, umbrella",0
same,"Plant response rating, Oat, Wild","oat, wild; [8]",0
same,"Plant response rating, Oat, Wild","oat, wild; [9]",0
same,"Plant response rating, Oat, Wild","oat, wild; [10]",0
same,"Plant response rating, Oat, Wild","oat, wild; [11]",0
same,"Plant response rating, Corn","corn; 125 g ai/ha, 0 to 100 scale, 0 no effect, 100 complete control",20
same,"Plant response rating, Corn","corn; 500 g ai/ha, 0 to 100 scale (0 no effect, 100 complete control)",80
same,"Plant response rating, Waterhemp",waterhemp; [1],0
same,"Plant response rating, Waterhemp",waterhemp; [2],0
same,"Plant response rating, Waterhemp",waterhemp; [3],15
same,"Plant response rating, Waterhemp",waterhemp; [4],20
same,Waterhemp plant response rating,waterhemp; [5],0
same,"Plant response rating, Waterhemp",waterhemp; [6],60
same,"Plant response rating, Waterhemp",waterhemp; [7],75
same,"Plant response rating (scale of 0 to 100), Waterhemp","waterhemp; Preemergence, 250 g ai/ha",85
O=C1NCC(c2ccc(C(F)(F)F)cc2)C1C(=O)Nc1cccc(F)c1F (racemic) [Compound 202],"Plant response rating, Ragweed",ragweed; [1],70
same,"Plant response rating, Ragweed",ragweed; [2],75
same,"Plant response rating, Ragweed",ragweed; [3],80
same,"Plant response rating, Ragweed",ragweed; [4],85
same,Ragweed plant response rating,ragweed; [5],65
same,Ragweed plant response rating,ragweed; [12],85
same,"Plant response rating, Ragweed",ragweed; [7],85
same,"Plant response rating (scale of 0 to 100), Ragweed","ragweed; Preemergence, 250 g ai/ha",100
same,"Plant response rating, Johnsongrass",johnsongrass; [1],0
same,"Plant response rating, Johnsongrass",johnsongrass; [2],20
same,"Plant response rating, Johnsongrass",johnsongrass; [3],25
same,"Plant response rating, Johnsongrass",johnsongrass; [4],25
same,Johnsongrass plant response rating,johnsongrass; [5],10
same,Johnsongrass plant response rating,johnsongrass; [12],60
same,"Plant response rating, Johnsongrass",johnsongrass; [7],70
same,"Plant response rating (scale of 0 to 100), Johnsongrass","johnsongrass; Preemergence, 250 g ai/ha",85
same,"Plant response rating, Soybean",soybean; [1],0
same,"Plant response rating, Soybean",soybean; [2],0
same,"Plant response rating, Soybean",soybean; [3],5
same,"Plant response rating, Soybean",soybean; [4],10
same,Soybean plant response rating,soybean; [5],0
same,Soybean plant response rating,soybean; [12],25
same,"Plant response rating, Soybean",soybean; [7],0
same,"Plant response rating (scale of 0 to 100), Soybean","soybean; Preemergence, 250 g ai/ha",10
same,"Plant response rating, Morningglory",morningglory; [1],5
same,"Plant response rating, Morningglory",morningglory; [2],10
same,"Plant response rating, Morningglory",morningglory; [3],70
same,"Plant response rating, Morningglory",morningglory; [4],10
same,Morningglory plant response rating,morningglory; [5],15
same,Morningglory plant response rating,morningglory; [12],25
same,"Plant response rating, Morningglory",morningglory; [7],25
same,"Plant response rating (scale of 0 to 100), Morningglory","morningglory; Preemergence, 250 g ai/ha",40
same,"Plant response rating, Rice",rice,15
same,"Plant response rating, Lambsquarters",lambsquarters; [1],70
same,"Plant response rating, Lambsquarters",lambsquarters; [2],80
same,"Plant response rating, Lambsquarters",lambsquarters; [3],80
same,"Plant response rating, Lambsquarters",lambsquarters; [4],85
same,Lambsquarters plant response rating,lambsquarters; [5],80
same,Lambsquarters plant response rating,lambsquarters; [12],90
same,"Plant response rating, Lambsquarters",lambsquarters; [7],90
same,"Plant response rating (scale of 0 to 100), Lambsquarters","lambsquarters; Preemergence, 250 g ai/ha",100
same,"Plant response rating, Barnyardgrass",barnyardgrass; [1],25
same,"Plant response rating, Barnyardgrass",barnyardgrass; [2],65
same,"Plant response rating, Barnyardgrass",barnyardgrass; [3],65
same,"Plant response rating, Barnyardgrass",barnyardgrass; [4],85
same,Barnyardgrass plant response rating,"barnyardgrass; Preemergence, 31 g ai/ha",90
same,"Plant response rating, Barnyardgrass",barnyardgrass; [6],90
same,"Plant response rating, Barnyardgrass",barnyardgrass; [7],95
same,"Plant response rating (scale of 0 to 100; 0 is no effect, 100 is complete control), Barnyardgrass","barnyardgrass; Preemergence, 250 g ai/ha",95
same,"Plant response rating, Sedge, Umbrella","sedge, umbrella",0
same,"Plant response rating, Oat, Wild","oat, wild; [8]",0
same,"Plant response rating, Oat, Wild","oat, wild; [9]",0
same,"Plant response rating, Oat, Wild","oat, wild; [10]",30
same,"Plant response rating, Oat, Wild","oat, wild; [11]",10
same,"Plant response rating, Corn","corn; 125 g ai/ha, 0 to 100 scale, 0 is no effect, 100 is complete control",80
same,"Corn plant response rating (0 to 100 scale, 0 is no effect, 100 is complete control)",corn; 500 g ai/ha,90
same,"Plant response rating, Waterhemp",waterhemp; [1],60
same,"Plant response rating, Waterhemp",waterhemp; [2],65
same,"Plant response rating, Waterhemp",waterhemp; [3],75
same,"Plant response rating, Waterhemp",waterhemp; [4],85
same,Waterhemp plant response rating,waterhemp; [5],85
same,Waterhemp plant response rating,waterhemp; [12],95
same,"Plant response rating, Waterhemp",waterhemp; [7],100
same,"Plant response rating (scale of 0 to 100), Waterhemp","waterhemp; Preemergence, 250 g ai/ha",100
